Reference: PMC13231921 (Antimicrobial Agents and Chemotherapy, 2026)

Assay: Pharmacokinetics of GST-HG171 and ritonavir in plasma, alone and co-administered with itraconazole (drug-drug interaction study)
Details: Day 3, N = 12, median (minimum, maximum)

## CC(C)c1nc(CN(C)C(=O)N[C@H](C(=O)N[C@@H](Cc2ccccc2)C[C@H](O)[C@H](Cc2ccccc2)NC(=O)OCc2cncs2)C(C)C)cs1 [Ritonavir, ritonavir]
  Tmax: 2.50 (2.0008, 3.0011) h
